Measured values as given in patent US20230240290A1, “USE OF (Z)-3-HEXENYL ESTERS AND METHOD FOR PROTECTING PLANTS AGAINST PESTS” (UNIVERSITAT POLITÈCNICA DE VALÈNCIA, priority 2020, published 2023).

How the values were obtained:
Tuta absoluta = experiment: Laying of Tuta absoluta on exposed tomato plants; type: in vivo; conditions: T. absoluta, 72 hours; permanent exposure
Procedure: It was also studied whether the defensive activation induced by exposure to (Z)-3-hexenyl propanoate could influence the development of two highly important phytophages in tomato cultivation, the red spider, T. urticae, and the lepidoptera T. absoluta. The individuals used in these experiments came from the captive breeding of these species that are kept in the IVIA described above. The exposure time of the plant to the volatile was tested on both phytophages in two different ways, one where the plant was only exposed to the volatile for 24 hours and then the herbivore to be assayed was immediately released, and the other where the volatile was permanently exposed throughout the experiment.
For this purpose, two climatic chambers were used under the same environmental conditions [25±2° C., 65±5% HR and 14:10 h (L:D) photoperiod], wherein, to avoid interference between the volatiles, one was assigned to the (Z)-3-hexenyl propanoate treatments and one to the control treatment. […]
Two consecutive experiments were performed to assess the effect of exposure to both volatiles on T. absoluta. […] The laying of T. absoluta was assessed in 8 tomato plants (cv. Moneymaker) per treatment. […] After this time, T. absoluta adults were removed, and the number of eggs was counted.

Nesidiocoris tenuis = conditions: in vivo
Procedure: To know the behavior of the dispensers loaded with (Z)-3-hexenyl propionate under real cultivation conditions, four commercial greenhouses for tomato cv Raf located in Xilxes (Castellón province), with a history of problems with T. absoluta contamination at the end of winter, were selected. An experimental design of randomized blocks was carried out where each greenhouse was considered a block with two treatments per block and 4 repetitions per treatment. […]
Twenty plants randomly chosen by repetition were sampled weekly for 11 weeks, beginning 30 Jan. […] First, the number of leaflets infested by T. absoluta per plant was counted. Then the number of N. tenuis (adults and nymphs) throughout the apical third of each plant (leaves, flowers and shoots) was counted. Following the methodology described above, 6 samples were taken from the apical part of each plant per repetition, and these samples were immediately introduced into liquid nitrogen to quantify the expression of the PR1 and PIN2 genes (described in Example 1 and Example 2). The expression of these genes was quantified one day before, 4, and 8 weeks after hanging the dispensers in the greenhouses.

Compound: CC/C=C\CCOC(=O)CC [(Z)-3-hexenyl propanoate]
- Reduction in laying compared to the control (Tuta absoluta): 67.2±15.0%
- Population of the plant bug N. tenuis, treatment vs control (Nesidiocoris tenuis): remained the same
